Data reported in paper PMC4884984, “Identification of approved and investigational drugs that inhibit hypoxia-inducible factor-1 signaling” (Oncotarget, 2016).
Like-named read-outs stand apart in the source and are kept apart here.

Tests used:
Assay type in all cases: cell-based, human
[1] = tested on: HIF-1α–NanoLuc HCT116 cells; experiment: Viability (Luc): CellTiter-Glo counter screen in HIF-1α–NanoLuc cells; details: for IC50: 1% O2, 18 h
[2] = tested on: HRE–bla ME-180 cells; experiment: Viability (BLA): CellTiter-Glo counter screen in HRE–bla cells; details: for Viability (BLA) confirmatory IC50: Table S7, 1% O2, 18 h; for IC50: Table S7, confirmatory screen, 1% O2, 18 h
Protocol: (§1) Cell culture of HRE–bla ME-180 cells (Cat. No. K1644, Life Technologies) and HRE–bla assay were conducted according to a reported protocol [6]. […] The fluorescence signals (460/25 nm and 530/20 nm) of CCF4 and luminescence signals of CellTiter-Glo were acquired on an Envision and a ViewLux plate readers (Perkin Elmer), respectively.

[3] = tested on: hypoxia response element-beta-lactamase (HRE–bla); experiment: HRE-bla reporter gene assay in ME-180 cells; details: Table S7, confirmatory screen; for Emax: read-out: HRE–bla confirmatory Efficacy; for IC50: read-out: HRE–bla confirmatory IC50
Protocol: as §1

[4] = tested on: HIF-1α–NanoLuc; experiment: HIF-1α–NanoLuc reporter gene assay (qHTS primary and confirmatory screens)
[5] = Homo sapiens, Table S7, confirmatory screen, read-out: HIF-1α–NanoLuc confirmatory Efficacy
[6] = Homo sapiens, Table S7, confirmatory screen, read-out: HIF-1α–NanoLuc confirmatory IC50
[7] = Homo sapiens, Table S7, primary screen, read-out: HIF-1α–NanoLuc primary Efficacy
[8] = Homo sapiens, Table S7, primary screen, read-out: HIF-1α–NanoLuc primary IC50
[9] = Homo sapiens, Table S1, primary screen, hypoxia 1% O2, 18 h, read-out: IC50 (primary screen, HIF-1α–NanoLuc assay)
[10] = Homo sapiens, Table S1, primary screen, read-out: Efficacy (primary screen, HIF-1α–NanoLuc assay)
[11] = Homo sapiens, Table S2, primary screen, read-out: Pathway inhibitors (primary screen) HIF-1α–NanoLuc Activity Efficacy
[12] = Homo sapiens, Table S2, primary screen, read-out: Pathway inhibitors (primary screen) HIF-1α–NanoLuc Activity IC50
[13] = Homo sapiens, Table S2, validation, read-out: Pathway inhibitors (validation) HIF-1α–NanoLuc Activity Efficacy
[14] = Homo sapiens, Table S2, validation, read-out: Pathway inhibitors (validation) HIF-1α–NanoLuc Activity IC50

## Nc1nc2nc[nH]c2c(=S)[nH]1 [6-Thioguanine]
[1]; Homo sapiens, HCT-116, Table S7, confirmatory screen
  IC50: 2.3 ± 0.87 µM
[1]; Homo sapiens, HCT-116, Table S7, confirmatory screen, read-out: Viability (Luc) confirmatory Efficacy
  Emax: 57 ± 2%
[2]
  Viability (BLA) confirmatory IC50: Inactive
[3]; Homo sapiens, ME-180
  Emax: 88 ± 1%
  IC50: 7.83 ± 1 µM
[4]; [5]
  Emax: 81 ± 7%
[4]; [6]
  IC50: 3.26 ± 0.81 µM
[4]; [7]
  Emax: 81%
[4]; [8]
  IC50: 2.11 µM

## N#C/C(=C\c1ccc(-c2cc(Cl)ccc2Cl)o1)C(=O)Nc1cccc2ncccc12 [AGK2]
[1]; Table S7, confirmatory screen
  IC50: 21.2 ± 3.96 µM
[2]
  IC50: 10.1 ± 2.97 µM
[3]
  HRE–bla confirmatory Efficacy: 63 ± 14%
  IC50: 9.47 ± 3.45 µM
[4]; Table S2, validation
  Pathway inhibitors (validation) HIF-1α–NanoLuc Activity Efficacy: 107± 9%
[4]; Table S2, validation, read-out: Pathway inhibitors (validation) HIF-1α–NanoLuc Activity IC50
  IC50: 19.5 ± 2.49 µM
[4]; Table S7, confirmatory screen
  HIF-1α–NanoLuc confirmatory Efficacy: 107 ± 9%

## O=C1NCN(c2ccccc2)C12CCN(CCCOc1ccc(F)cc1)CC2 [AMI-193]
[1]; Table S7, 1% O2, 18 h
  Viability (Luc) confirmatory IC50: Inactive
[2]; Homo sapiens, ME-180
  IC50: 25.8 ± 4.4 µM
[3]
  HRE–bla confirmatory IC50: Inactive
[4]; [5]
  Emax: 48 ± 6%
[4]; [6]
  IC50: 12.2 ± 0.83 µM
[4]; [7]
  Emax: 57%
[4]; [8]
  IC50: 3.35 µM

## CNC(=O)c1ccccc1Sc1ccc2c(/C=C/c3ccccn3)n[nH]c2c1 [Axitinib]
[4]; Table S2, primary screen
  Pathway inhibitors (primary screen) HIF-1α–NanoLuc Activity IC50: Inactive

## COc1ccc2cc3[n+](cc2c1OC)CCc1cc2c(cc1-3)OCO2 [Berberine]
[4]; [9]
  IC50: 0.94 µM
[4]; [10]
  Emax: 116%

## COc1cc(Nc2c(C#N)cnc3cc(OCCCN4CCN(C)CC4)c(OC)cc23)c(Cl)cc1Cl [Bosutinib]
[4]; [11]
  Emax: 58%
[4]; [12]
  IC50: 11.9 µM

## O=c1[nH]c(=S)[nH]c(-c2ccccc2)c1Cc1c(O)ccc2ccccc12 [Cambinol]
[4]; Table S2, validation
  Pathway inhibitors (validation) HIF-1α–NanoLuc Activity IC50: Inactive

## Cc1ccc(-c2cc(C(F)(F)F)nn2-c2ccc(S(N)(=O)=O)cc2)cc1 [Celecoxib]
[4]; [9]
  IC50: 10.6 µM
[4]; [10]
  Emax: 43%

## COCCOC(=O)C1=C(C)NC(C)=C(C(=O)OC/C=C/c2ccccc2)C1c1cccc([N+](=O)[O-])c1 (stereo not shown) [Cilnidipine]
[4]; [9]
  IC50: 10.6 µM
[4]; [10]
  Emax: 63%

## CC[C@H]1CN2CCc3cc(OC)c(OC)cc3[C@@H]2C[C@@H]1C[C@H]1NCCc2cc(OC)c(OC)cc21 [Emetine]
[2]
  Viability (BLA) confirmatory IC50: Inactive
[3]; Homo sapiens, ME-180
  Emax: 91 ± 1%
  IC50: 0.29 ± 0.05 µM

## Cn1cc(C2=C(c3cn(C4CCN(Cc5ccccn5)CC4)c4ccccc34)C(=O)NC2=O)c2ccccc21 [Enzastaurin]
[4]; [11]
  Emax: 39%
[4]; [12]
  IC50: 15 µM
[4]; [13]
  Emax: 67 ± 6%
[4]; [14]
  IC50: 2.06 ± 3.3 µM

## COc1cccc2c1C(=O)c1c(O)c3c(c(O)c1C2=O)C[C@@](O)(C(=O)CO)C[C@@H]3O[C@H]1C[C@H](N)[C@@H](O)[C@H](C)O1 [Epirubicin]
[4]; [9]
  IC50: 0.3 µM
[4]; [10]
  Emax: 108%

## CN1CC[C@H](c2c(O)cc(O)c3c(=O)cc(-c4ccccc4Cl)oc23)[C@H](O)C1 [Flavopiridol]
[4]; [9]
  IC50: 1.06 µM
[4]; [10]
  Emax: 76%

## Cn1nccc1Nc1nccc(-c2ccn([C@H](CO)c3ccc(Cl)c(F)c3)c(=O)c2)n1 [GDC-0994]
[4]; [13]
  Emax: 63 ± 7%
[4]; [14]
  IC50: 6.11 ± 1.64 µM

## O=c1c(-c2ccc(O)cc2)coc2cc(O)cc(O)c12 [Genistein]
[4]; [9]
  IC50: 8.41 µM
[4]; [10]
  Emax: 65%

## CC[C@@]1(O)C(=O)OCc2c1cc1n(c2=O)Cc2c-1nc1ccccc1c2/C=N/OC(C)(C)C [Gimatecan]
[4]; [9]
  IC50: 0.6 µM
[4]; [10]
  Emax: 108%
[4]; [11]
  Emax: 108%

## Cc1ccc(NC(=O)c2ccc(CN3CCN(C)CC3)cc2)cc1Nc1nccc(-c2cccnc2)n1 [Imatinib]
[4]; [11]
  Emax: 28%

## Cc1oncc1C(=O)Nc1ccc(C(F)(F)F)cc1 [Leflunomide]
[2]
  Viability (BLA) confirmatory IC50: Inactive
[3]
  HRE–bla confirmatory IC50: Inactive

## COC(=O)C1=C(C)NC(C)=C(C(=O)OC(C)(C)CN(C)CCC(c2ccccc2)c2ccccc2)C1c1cccc([N+](=O)[O-])c1 (stereo not shown) [Lercanidipine]
[4]; [9]
  IC50: 11.9 µM
[4]; [10]
  Emax: 63%

## NC1(c2ccc(-c3nc4ccn5c(=O)[nH]nc5c4cc3-c3ccccc3)cc2)CCC1 [MK-2206]
[4]; [11]
  Emax: 45%
[4]; [12]
  IC50: 0.42 µM
